Results as given in patent USRE49825E1, “Piperidinyl nociceptin receptor compounds” (Astraea Therapeutics, LLC, priority 2015, dated 2024).
Read-outs that look alike come from different tables or passages of the source.

Tests used:
mu opioid receptor = mu opioid receptor (Homo sapiens, UniProt P35372); experiment: Radioligand binding assay, [3H]DAMGO, membranes of CHO cells transfected with human mu opioid receptor; settings: CHO cell membranes, read-out: Receptor Binding Ki (nM) μ
kappa opioid receptor = kappa opioid receptor (Homo sapiens, UniProt P41145); experiment: Radioligand binding assay, [3H]U69593, membranes of CHO cells transfected with human kappa opioid receptor; settings: CHO cell membranes, read-out: Receptor Binding Ki (nM) κ
Sequence of kappa opioid receptor (P41145 whole entry): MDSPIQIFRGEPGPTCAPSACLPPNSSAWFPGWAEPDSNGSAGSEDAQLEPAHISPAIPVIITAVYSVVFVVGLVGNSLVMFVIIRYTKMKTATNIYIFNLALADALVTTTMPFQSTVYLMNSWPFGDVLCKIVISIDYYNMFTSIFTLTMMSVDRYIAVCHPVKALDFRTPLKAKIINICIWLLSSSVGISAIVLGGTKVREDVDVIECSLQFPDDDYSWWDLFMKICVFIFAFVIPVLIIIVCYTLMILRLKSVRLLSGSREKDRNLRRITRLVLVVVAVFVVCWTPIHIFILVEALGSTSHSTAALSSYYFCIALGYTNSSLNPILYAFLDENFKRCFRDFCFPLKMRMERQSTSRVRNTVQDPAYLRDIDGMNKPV

Sequence of mu opioid receptor (P35372 whole entry): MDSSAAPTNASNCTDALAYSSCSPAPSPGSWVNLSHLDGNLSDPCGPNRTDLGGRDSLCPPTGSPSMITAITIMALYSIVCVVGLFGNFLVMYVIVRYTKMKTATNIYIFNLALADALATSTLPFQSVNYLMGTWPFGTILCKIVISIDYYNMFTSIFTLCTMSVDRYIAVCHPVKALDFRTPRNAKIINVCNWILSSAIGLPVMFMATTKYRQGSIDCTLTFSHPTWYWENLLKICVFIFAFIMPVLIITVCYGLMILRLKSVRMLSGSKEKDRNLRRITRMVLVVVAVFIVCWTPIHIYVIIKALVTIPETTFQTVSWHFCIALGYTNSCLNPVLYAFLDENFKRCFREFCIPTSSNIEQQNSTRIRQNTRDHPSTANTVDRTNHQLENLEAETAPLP

Structure (SMILES) | Ki (mu opioid receptor; Compounds of Formula (II)) [nM] | Ki (kappa opioid receptor; Compounds of Formula (II)) [nM] | Ki (mu opioid receptor; Compounds of Formula (IV)) [nM] | Ki (kappa opioid receptor; Compounds of Formula (IV)) [nM]
CC(C)[C@H]1CC[C@@H](N2CCC(n3cc(CNCCO)c4ccccc43)CC2)CC1 [Compound 70] | 150 to 5000 | 150 to 5000 |  | 
CC(C)[C@H]1CC[C@@H](N2CCC3(CC2)C(=O)N(CC(N)=O)Cc2cc(-c4ccccc4)ccc23)CC1 [Compound 345, 2-(1′-(cis-4-isopropyl-cyclohexyl)-3-oxo-7-phenyl-1H-spiro [isoquinoline-4,4′-piperidin]-2(3H)-yl) acetamide] |  |  | 150 to 5000 | 150 to 5000
CCOC(=O)NCCc1cn(C2CCN([C@H]3CC[C@@H](C(C)C)CC3)CC2)c2ccccc12 [Compound 94] | 150 to 5000 | > 5000 |  | 
CC(C)[C@H]1CC[C@@H](N2CCC(n3cc(CCN)c4ccccc43)CC2)CC1 [Compound 86, 2-(1-(1-(cis-4-isopropylcyclohexyl)piperidin-4-yl)-1H-indol-3-yl)ethan-1-amine] | 150 to 5000 | 150 to 5000 |  | 
CC(C)[C@H]1CC[C@@H](N2CCC(n3cc(CN(C)C)c4ccccc43)CC2)CC1 [Compound 84] | 150 to 5000 |  |  | 
CC(C)[C@H]1CC[C@@H](N2CCC(n3cc(CNC(=O)C(N)CCCNC(=N)N)c4ccccc43)CC2)CC1 (stereo partly shown) [Compound 80] | 150 to 5000 | 150 to 5000 |  | 
CC(C)[C@H]1CC[C@@H](N2CCC(n3cc(CN4CCC(N)CC4)c4ccccc43)CC2)CC1 [Compound 69, 1-((1-(1-(cis-4-isopropylcyclohexyl)piperidin-4-yl)-1H-indol-3-yl)methyl)piperidin-4-amine] | 150 to 5000 | 150 to 5000 |  | 
CC(C)[C@H]1CC[C@@H](N2CCC(n3cc(CN4CC[C@@H](O)C4)c4ccccc43)CC2)CC1 [Compound 66, (R)-1-((1-(1-(cis-4-isopropylcyclohexyl)piperidin-4-yl)-1H-indol-3-yl)methyl)pyrrolin-3-ol] | 150 to 5000 | > 5000 |  | 
CCNCC(=O)NCc1cn(C2CCN([C@H]3CC[C@@H](C(C)C)CC3)CC2)c2ccccc12 [Compound 76] | 150 to 5000 | 150 to 5000 |  | 
CC(C)[C@H]1CC[C@@H](N2CCC(n3ccc4ccccc43)CC2)CC1 [Compound 61, syn-1-(1-(4-isopropylcyclohexyl)piperidin-4-yl)-1H-indole] | 150 to 5000 | 150 to 5000 |  | 
CC(C)[C@H]1CC[C@@H](N2CCC(n3cc(CN4CCC(O)CC4)c4ccccc43)CC2)CC1 [Compound 68] | > 5000 | 150 to 5000 |  | 
CC(C)[C@H]1CC[C@@H](N2CCC(n3cc(CN4CC(O)C4)c4ccccc43)CC2)CC1 [Compound 67, 1-((1-(1-(cis-4-isopropylcyclohexyl)piperidin-4-yl)-1H-indol-3-yl)methyl)azetidin-3-ol] | > 5000 | > 5000 |  | 
CC(C)[C@H]1CC[C@@H](N2CCC(n3cc(CCCNC(N)=S)c4ccccc43)CC2)CC1 [Compound 96] | 150 to 5000 | 150 to 5000 |  | 
